From patent US20130196935A1, “SYNTHETIC GLYCOAMINE COMPOUNDS” (ANIMAL CELL THERAPIES INC., priority 2012, published 2013)
“And” between values parts separate entries of the source, which are not always exact repeats. Equal entries are not always repeated.

Columns and labels:
[1] = tested on: SVR cells; experiment: Clonogenic survival (colony formation) of SVR cells; format: cell-based; details: for Colony # (single well): 200 SVR cells per well; for Colony # Average: average of 4 wells; for inhibition of colony formation compared to the control: two-tailed t-test; for inhibition of SVR cell colony formation: concentrations 1 mM and higher, compared to control
Description: 1. Testing concentrations of ACT-1 and ACT-2: 1 mM, 500 μM, 250 μM, 125 μM, and 62.5 μM. 2. Prepared 2 mM ACT-1=0.91 mg/mL and 2 mM ACT-2=0.91 mg/mL in SVR complete culture medium. Sterilized the test article solutions by filtering through 0.2 μm syringe filters (Whatman Puradisc 25 mm, Cat #6780-2502). 3. Prepared solutions in 2× testing concentrations (2 mM, 1 mM, 500 μM, 250 μM, 125 μM and 62.5 μM) by preparing 2× dilution from 2 mM stock solution (mixing 2.4 mL culture medium with 2.4 mL of 2 mM solution, and make serial 2× dilutions the same way). 4. Pipetted 0.5 mL of test articles to 24-well plates according to the layout below (ACT-1 in one plate and ACT-2 in another plate). Each concentration will be tested in quadruplicate.
5. Trypsinized SVR cells (P1) and prepared 400 cells/mL solution in culture medium. Pipetted 0.5 mL cell solution to each well (200 cells/well). Mixed well by gentle pipetting. 6. Cultured cells at 37° C. incubator for 6 days. 7. Aspirated medium from the wells. Rinsed cells once with 1 mL of PBS (LONZA, Cat #: 17-516Q). 8. Fixed cells with 0.5 mL of freshly prepared 4% paraformaldehyde (PFA) (1:8 dilution of 32% PFA solution in PBS; 32% PFA solution: Electron Microscopy Sciences Cat #:15714) in PBS at RT for 20 min. Removed PFA and washed cells once with 1 mL PBS. 9. Stained cells with 0.3 mL of Mayer's hematoxylin solution (Sigma Cat#: MHS1-100ML) at RT for 15 min. Removed hematoxylin solution and rinsed cells twice with 1 mL of warm tap water. 10. Counted cell colonies under microscope with 40× magnification (divide the wells with makers into 4 sections. Count the numbers of colonies from each section and add the numbers to yield the final colony numbers).
1. Testing concentrations of ACT-1 and ACT-2: 4 mM, 2 mM, 1 mM, and 0.5 mM. 2. The experimental procedures were the same as in Experiment 1-1, except that the total volume in each well was 0.6 mL (0.3 mL of 2× concentrated test articles and 0.3 mL of 667 cells/mL cell solution).
3. Cultured cells at 37° C. incubator for 6 days. 4. Visualized the cell colonies by staining with hematoxylin as described above. 5. Counted the colonies under microscope.

[2] = tested on: SVR cells; experiment: TUNEL assay, apoptosis induction of SVR cells; format: cell-based; details: 2 mM, 24 hours
Description: 1. Testing concentrations of ACT-1 and ACT-2: 2 mM. 2. Prepared 4 mM ACT-1=1.82 mg/mL and 4 mM ACT-2=1.81 mg/mL in complete culture medium. Sterilized the drug solutions by filtering through 0.2 μm syringe filters. 3. Added 100 μl of test articles or culture medium to 4 wells for each ACT-1 and ACT-2 in a 96-well plate. Added 100 μl of culture medium to 5 wells (for non-treated and DNase treatment controls). 4. Trypsinized SVR cells (P3) and prepared 5×10^3 cells/mL solution in culture medium. Added 100 μl of cell solution to each well (500 cells/well). Mixed well by gentle pipetting. 5. Incubated at 37° C. for 24 hours. 6. Removed medium and added 100 μl of 4% PFA in PBS to the wells. Incubated at room temperature for 15 min. 7. Removed PFA solution and 100 μl of permeabilization reagent (0.25% Triton X-100 in PBS) (Triton X-100: Sigma Cat #: T8787-100ML). Incubated at room temperature for 20 min. Washed twice with deionized water. 8. TUNEL reaction was then carried out exactly as the protocol provided by the kit (Invitrogen Click-iT TUNEL Alexa Fluor Imaging Assay Kit, Cat #: C10245). Treated one well (culture medium control) with DNase as positive control for the TUNEL reaction. The reaction volume for each well was 50 μl. 9. After TdT and Click-iT reactions, DNA was stained with Hoechst 33342 (provided by the kit) 1:5,000 in PBS at RT for 15 min. Washed wells three times with PBS. 10. […]

[3] = MTS cytotoxicity assay on primary BAEC; format: cell-based, bovine; details: bovine, primary bovine aortic endothelial cells (BAEC), read-out: Viability of BAEC cells compared to control, Ave (%)
Description: (§1) 1. Testing concentrations of ACT-1 and ACT-2: 8 mM, 4 mM, 2 mM, 1 mM, 0.5 mM, 0.25 mM and 0.125 mM. 2. Trypsinized exponentially growing BAECs (P1) and SVR cells (P4), and prepared 5×10^4 cells/mL cell solution for BAECs and […] for SVR cells. Add 100 μl of cell solution to 96-well plates to achieve 5,000 cells/well for BAECs and 1,000 cells/well for SVR cells. Incubated cells at 37° C. overnight. 3. Prepared 8 mM=3.64 mg/mL and 8 mM ACT-2=3.62 mg/mL in BAEC complete culture medium. Sterilized the drug solutions by filtering through 0.2 μm syringe filters. 4. Prepared 2× serial dilutions from 8 mM stock solution by mixing 0.6 mL drug solution with 0.6 mL culture medium. 5. Aspirated medium from wells and added 80 μl of test article solutions to the wells according to the layout below.
(§2) 6. Incubated cells at 37° C. for 48 hours. 7. Aspirated the medium from wells and added fresh 70 μl culture medium to the wells. 8. Prepared MTS reagent (Promega CellTiter 96 Aqueous MTS assay reagents, Cat #G5421) by mixing 2.4 mL MTS, 120 μl PMS and 3.779 mL culture medium. Added 50 μl MTS assay reagent to the wells using a multiple channel pipette. 9. Incubate at 37° C. for 2 hours. Read absorbance at 490 nm using a plate reader.

[4] = tested on: primary bovine aortic endothelial cells (BAEC); experiment: MTS cytotoxicity assay on primary BAEC; format: cell-based; details: 0.125-8 mM, 48 hours
Description: as §1, §2

[5] = tested on: SVR cells; experiment: MTS cytotoxicity assay on SVR cells; format: cell-based; details: for significance level P, cytotoxic effect on SVR cells compared to the control: 8 mM, two-tailed t-test; for cytotoxic effect on SVR cells: only at 8 mM, 48 hours, MTS
Description: as §1, §2

[6] = Experiment A, 62.5 μM, six days after treatment
[7] = Experiment A, 62.5 μM, six days
[8] = Experiment A, 125 μM, six days after treatment
[9] = Experiment A, 250 μM, six days after treatment
[10] = Experiment A, 500 μM, six days after treatment
[11] = Experiment A, 1000 μM, six days after treatment
[12] = Experiment A, 1000 μM, six days
[13] = Experiment B (higher concentrations), 0.5 mM, six days
[14] = Experiment B (higher concentrations), 1 mM, six days
[15] = Experiment B (higher concentrations), 2 mM, six days
[16] = Experiment B (higher concentrations), 4 mM, six days

| SMILES | Colony # (single well) [1, 6] | Colony # Average [1, 7] | Colony # (single well) [1, 8] | Colony # Average ([1]; Experiment A, 125 μM, six days) | Colony # (single well) [1, 9] | Colony # Average ([1]; Experiment A, 250 μM, six days) | Colony # (single well) [1, 10] | Colony # Average ([1]; Experiment A, 500 μM, six days) | Colony # (single well) [1, 11] | Colony # Average [1, 12] | Colony # (single well) [1, 13] | Colony # (single well) [1, 14] | Colony # (single well) [1, 15] | Colony # (single well) [1, 16] | Colony # Average ([1]; Experiment B, 0.5 mM, six days) | Colony # Average ([1]; Experiment B, 1 mM, six days) | Colony # Average ([1]; Experiment B, 2 mM, six days) | Colony # Average ([1]; Experiment B, 4 mM, six days) | inhibition of SVR cell colony formation ([1]; Experiment B) | TUNEL nuclear staining (apoptosis induction) [2] | other results |
| --- | --- | --- | --- | --- | --- | --- | --- | --- | --- | --- | --- | --- | --- | --- | --- | --- | --- | --- | --- | --- | --- |
| CC(C)CC(NC[C@@]1(O)OC[C@@H](O)[C@@H](O[C@@H]2O[C@H](CO)[C@H](O)[C@H](O)[C@H]2O)[C@@H]1O)C(=O)O (stereo in doubt) [ACT-1] | 43 and 42 and 41 and 39 | 41.3 | 44 and 41 and 39 | 40.8 | 43 and 40 and 41 and 34 | 39.5 | 42 and 41 and 33 | 39.3 | 34 and 32 | 33.0 | 40 and 45 and 35 | 38 and 32 and 33 and 34 | 1 and 2 | 0 | 40.0 | 34.3 | 1.8 | 0.0 | inhibited SVR cell colony formation | nuclear staining was not observed | inhibition of colony formation compared to the control ([1]; Experiment A, 1 mM): significant inhibition of colony formation; viability at 48 h, 0.125 mM [3]: 104%; viability at 48 h, 0.25 mM [3]: 112%; viability at 48 h, 0.5 mM [3]: 118%; viability at 48 h, 1 mM [3]: 126%; viability at 48 h, 2 mM [3]: 122%; viability at 48 h, 4 mM [3]: 112%; viability at 48 h, 8 mM [3]: 99.4%; cytotoxic effect on primary BAECs [4]: did not show significant cytotoxic effect; significance level P, cytotoxic effect on SVR cells compared to the control [5]: 0.016; cytotoxic effect on SVR cells [5]: significant cytotoxic effect |
| O=C(O)[C@H](CC1CC1)NC[C@@]1(O)OC[C@@H](O)[C@@H](O[C@@H]2O[C@H](CO)[C@H](O)[C@H](O)[C@H]2O)[C@@H]1O [ACT-2] | 49 and 51 and 43 and 48 | 47.8 | 44 and 42 and 39 | 41.8 | 50 and 44 and 39 and 37 | 42.5 | 39 and 31 and 33 and 35 | 34.5 | 33 and 36 and 39 and 28 | 34.0 | 38 and 34 and 40 and 31 | 13 and 23 and 19 and 16 | 0 | 0 | 35.8 | 17.8 | 0.0 | 0.0 | inhibited SVR cell colony formation | nuclear staining was not observed | inhibition of colony formation compared to the control ([1]; Experiment A, 0.5 mM): significant inhibition of colony formation; viability at 48 h, 0.125 mM [3]: 107%; viability at 48 h, 0.25 mM [3]: 133%; viability at 48 h, 0.5 mM [3]: 136%; viability at 48 h, 1 mM [3]: 132%; viability at 48 h, 2 mM [3]: 133%; viability at 48 h, 4 mM [3]: 118%; viability at 48 h, 8 mM [3]: 106%; cytotoxic effect on primary BAECs [4]: did not show significant cytotoxic effect; significance level P, cytotoxic effect on SVR cells compared to the control [5]: 0.018; cytotoxic effect on SVR cells [5]: significant cytotoxic effect |
